Results: article PMC8661032, “Broad-Spectrum Antibacterial Peptide Kills Extracellular and Intracellular Bacteria Without Affecting Epithelialization” (Frontiers in Microbiology, 2021)
Values after ≈ are worked out from the molar mass of the structure shown. Residues, ends and D or L forms follow the SMILES beside them.

Tests used:
A. baumannii = assay: microbe, parasite or virus in culture; conditions: for MIC: Acinetobacter baumannii
Experimental: (§1) Briefly, bacterial colonies from blood agar plates were suspended and grown in Cation-Adjusted Mueller-Hinton Broth (CAMHB, […] Ca^2+, […] Mg^2+). The bacterial suspension was adjusted to 0.5 McFarland standard (∼1 × 10^8 colony-forming units (CFU)/ml) and serial diluted 1:200 in CAMHB (∼5 × 10^5 CFU/mL). […] The suspension was plated out on blood agar plates to confirm the CFU/ml. Both the microtiter plates and the blood agar plates were incubated at 37°C for 24 h.

P. aeruginosa = assay: microbe, parasite or virus in culture; conditions: for MIC: Pseudomonas aeruginosa
Experimental: as §1

S. aureus = assay: microbe, parasite or virus in culture; conditions: for MIC: Staphylococcus aureus, CAMHB, 24 h, three independent experiments
Experimental: as §1

E. coli [1] = assay: microbe, parasite or virus in culture; conditions: K-12 MG1655; CLSI broth microdilution, CAMHB, 37°C, 24 h, visible growth; net peptide concentration
Experimental: as §1

HEK293 cells = test system: HEK293 cells
Experimental: HEK293 cells (6,000 cells/well) were seeded in 96-well microtiter plates. After 4 h, APIM-peptides (12–48 μg/ml) were added, and the cells were incubated without change of media for up to 4 days. Viability was measured using the 3-(4,5-dimethylthiazol-2-yl)-2,5-diphenyltetrazolium bromide (MTT) assay as described ([Gilljam et al., 2009]).
(1 picture or pasted object on this page, not shown here)

E. coli [2] = assay: Growth inhibition assay (OD600 over 24 h); assay type: cell-based, Escherichia coli; design: Reduction of viability E. coli (60 μg/ml): key to the marks not given beside the values; conditions: LB medium
Experimental: An overnight culture of Escherichia coli was diluted 1:100 in Luria-Bertani (LB) medium and allowed to grow until an optical density (OD) at 600 nm (OD600) of 0.06–0.1. APIM-peptides were prepared by serial dilution in Milli-Q H2O and kept at 4°C. Fresh LB medium (60 μl) was added to a flat-bottom microtiter plate. The bacterial suspension was diluted 1:100 in LB, and 75 μl of this suspension was added to the wells. Finally, 15 μl of APIM-peptide solution (to final concentrations 60, 120, and 240 μg/ml) or distilled water (positive control) was added to the wells, reaching a total volume of 150 μl per well. Data are presented only for the dose that separated the effect of the different peptides, i.e., 60 μg/ml. A blank sterile medium was used as negative control. The plates were incubated with shaking at 510 rpm at 37°C inside a plate reader (TECAN, Spark®), and OD was read every hour over a period of 24 h.
The MIC for E. coli in LB medium is higher than that in CAMHB; thus, concentrations higher than the MIC given in Table 2 are used in the growth inhibition and mutagenesis assays. […]
E. coli. Growth of E. coli in LB medium over 24 hours (Optical Density (OD) 600 nm) after addition
of APIM-peptide variants 1-5 (60 µg/mL) at time t=0 (see Table 2). Negative (-) control is no
bacteria added, positive (+) control is untreated bacteria.
highest inhibition of growth.
control (black filled line).

E. coli [3] = assay: Rifampicin (RifR) mutagenesis assay after UV-C; assay type: cell-based, Escherichia coli; conditions: for Reduction of mutation frequency E. coli (20 μg/ml): 20 μg/ml peptide, UV-C 20 mJ/cm^2, RifR assay, relative to untreated control
Experimental: The rifampicin (Rif^R) mutagenesis assay was performed as described ([Nedal et al., 2020]). Briefly, an overnight culture of E. coli was diluted 1:1,000 and grown until an OD600 of 0.01. APIM-peptides (20 μg/ml) were added to LB media with glass beads (for uniform distribution of APIM-peptides) and incubated for 30 min at 37°C. The pellets were next collected, resuspended in 500 μl PBS, and exposed to UV-C (20 mJ/cm^2) in a six-well plate at 4°C. The unexposed bacteria (-UV) were otherwise handled exactly like the UV-exposed bacteria. Next, the cells were resuspended in LB media and incubated in a rotary shaker at 37°C at 250 rpm for 2 h before being harvested, diluted, and plated on LB with soft agar with and without rifampicin (100 μg/ml). Mutation frequency, Rif^R/10^8, is obtained as follows: (number of colonies on the rifampicin plate (Rif^R)/(number of colonies on LB plates without antibiotics), per milliliter of bacterial suspension. […]
mutagenesis in E. coli more efficiently than the other peptide variants.
Increase in mutation frequencies after treatment with UV-C (20 mJ/cm2) relative to spontaneous mutations frequencies using the RifR assay were determined. This increase is set to 100% for untreated control, and % reduction after addition of peptides 1-5 (20 μg/mL) are shown. Mean ± SD from three independent experiments. * p<0.05, ** p<0.005

[4] = test system: S. epidermidis MRSE (SO-SEP9-1); conditions: SO-SEP9-1, 24 h
Experimental: as §1

What does the source list for `C[C@@H](O)[C@H]1C(=O)N2C(C(=O)O)=C(S[C@@H]3CN[C@H](C(=O)N(C)C)C3)[C@H](C)[C@H]12` [Meropenem, meropenem]?
Combination effect with 0.5× MIC betatide (A. baumannii; ATCC 19606): None; MIC (A. baumannii; 24 h): 512 µg/mL (≈ 1340 µM); MIC (A. baumannii; ATCC19606, 24 h): 4 µg/mL (≈ 10.4 µM); Combination effect with 0.5× MIC betatide (A. baumannii; SO-ABA19-1 (ESBL-CARBA-D)): None; Combination effect with 0.5× MIC betatide (P. aeruginosa; ATCC 27853): None; MIC (P. aeruginosa; 24 h): 64 µg/mL (≈ 167 µM); MIC (P. aeruginosa; ATCC27853, 24 h): 0.5 µg/mL (≈ 1.3 µM); Combination effect with 0.5× MIC betatide (P. aeruginosa; SO-PAE19-1 (multidrug resistant)): Additive 2×

`COc1cccc(OC)c1C(=O)N[C@@H]1C(=O)N2[C@@H]1SC(C)(C)[C@@H]2C(=O)O` [Methicillin, methicillin] was tested. Which “Combination effect with 0.5× MIC betatide” value (S. aureus; ATCC 29213) did it give?
The value was “Additive 2×”.

What about the “Combination effect with 0.5× MIC betatide” value (S. aureus; SO-SAU19-1 (MRSA)) of the same molecule?
The value was “Additive 4×”.

And the MIC (S. aureus; ATCC29213, 24 h, Reference strain ATCC 29213)?
Its MIC is 1 µg/mL (≈ 2.63 µM).

And the MIC (S. aureus; MRSA, Clinical isolate SO-SAU19-1 (MRSA))?
Its MIC is 8 µg/mL (≈ 21 µM).

Which results are given for `CC[C@H](C)[C@H](NC(=O)[C@H](CCCCN)NC(=O)[C@H](CCCNC(=N)N)NC(=O)[C@H](CCCCN)NC(=O)[C@H](CCCCN)NC(=O)[C@H](CCCCN)NC(=O)[C@H](Cc1c[nH]c2ccccc12)NC(=O)[C@H](CCCCN)NC(=O)[C@@H](NC(=O)[C@H](CC(C)C)NC(=O)[C@H](Cc1c[nH]c2ccccc12)NC(=O)[C@H](CCCNC(=N)N)NC(=O)[C@H](CC(=O)O)NC(=O)[C@H](CCSC)NC(C)=O)C(C)C)C(=O)N[C@@H](CCCNC(=N)N)C(=O)N[C@@H](CCCNC(=N)N)C(=O)N[C@@H](CCCNC(=N)N)C(=O)N[C@@H](CCCNC(=N)N)C(=O)N[C@@H](CCCNC(=N)N)C(=O)N[C@@H](CCCNC(=N)N)C(=O)N[C@@H](CCCNC(=N)N)C(=O)N[C@@H](CCCNC(=N)N)C(=O)N[C@@H](CCCNC(=N)N)C(=O)N[C@@H](CCCNC(=N)N)C(=O)N[C@@H](CCCNC(=N)N)C(N)=O` [Peptide 1] (Ac-MDRWLVKWKKKRKIRRRRRRRRRRR-NH2)?
MIC E. coli (E. coli [1]): 32 µg/mL (≈ 8.71 µM); Reduction of viability HEK293 (24 μg/ml) (HEK293 cells): +; inhibition of growth of E. coli (OD 600 nm) (E. coli [2]; 60 µg/mL, over 24 hours, Supplementary Figure S1): least efficient; Reduction of mutation frequency E. coli (20 μg/ml) (E. coli [3]): +; MIC S. epidermidis MRSE [4]: 32 µg/mL (≈ 8.71 µM)

Which results are given for `CC[C@H](C)[C@H](NC(=O)CNC(=O)[C@H](CCCCN)NC(=O)[C@@H](NC(=O)[C@H](CC(C)C)NC(=O)[C@H](Cc1c[nH]c2ccccc12)NC(=O)[C@H](CCCNC(=N)N)NC(=O)[C@H](CC(=O)O)NC(=O)[C@H](CCSC)NC(C)=O)C(C)C)C(=O)N[C@@H](CC(C)C)C(=O)N[C@@H](CCC(N)=O)C(=O)N[C@@H](Cc1c[nH]c2ccccc12)C(=O)N[C@@H](CCCNC(=N)N)C(=O)N[C@@H](CCCCN)C(=O)N[C@H](C(=O)N[C@@H](CCCNC(=N)N)C(=O)N[C@@H](CCCNC(=N)N)C(=O)N[C@@H](CCCNC(=N)N)C(=O)N[C@@H](CCCNC(=N)N)C(=O)N[C@@H](CCCNC(=N)N)C(=O)N[C@@H](CCCNC(=N)N)C(=O)N[C@@H](CCCNC(=N)N)C(=O)N[C@@H](CCCNC(=N)N)C(=O)N[C@@H](CCCNC(=N)N)C(=O)N[C@@H](CCCNC(=N)N)C(N)=O)[C@@H](C)CC` [Peptide 3] (Ac-MDRWLVKGILQWRKIRRRRRRRRRR-NH2)?
MIC E. coli (E. coli [1]): 32 µg/mL (≈ 9.03 µM); Reduction of viability HEK293 (24 μg/ml) (HEK293 cells): +; UV-induced mutation frequencies relative to control (E. coli [3]; 20 μg/mL, UV-C 20 mJ/cm2, RifR assay, three independent experiments): significantly reduced; Reduction of mutation frequency E. coli (20 μg/ml) (E. coli [3]): ++; MIC S. epidermidis MRSE [4]: 16 µg/mL (≈ 4.51 µM)

For `CC[C@H](C)[C@H](NC(=O)CNC(=O)[C@H](CCCCN)NC(=O)[C@@H](NC(=O)[C@H](CC(C)C)NC(=O)[C@H](Cc1c[nH]c2ccccc12)NC(=O)[C@H](CCCNC(=N)N)NC(=O)[C@H](CC(=O)O)NC(=O)[C@H](CCSC)NC(C)=O)C(C)C)C(=O)N[C@@H](CC(C)C)C(=O)N[C@@H](CCC(N)=O)C(=O)N[C@@H](Cc1c[nH]c2ccccc12)C(=O)N[C@@H](CCCNC(=N)N)C(=O)N[C@@H](CCCCN)C(=O)N[C@H](C(=O)N[C@@H](CCCNC(=N)N)C(=O)N[C@@H](CCCNC(=N)N)C(=O)N[C@@H](CCCNC(=N)N)C(=O)N[C@@H](CCCNC(=N)N)C(=O)N[C@@H](CCCNC(=N)N)C(=O)N[C@@H](CCCNC(=N)N)C(=O)N[C@@H](CCCNC(=N)N)C(=O)N[C@@H](CCCNC(=N)N)C(=O)N[C@@H](CCCNC(=N)N)C(N)=O)[C@@H](C)CC` [Peptide 4] (Ac-MDRWLVKGILQWRKIRRRRRRRRR-NH2), which “MIC E. coli” value (E. coli [1]) is on record?
Its value is 32 µg/mL (≈ 9.44 µM).

What about the “Reduction of viability E. coli (60 μg/ml)” value (E. coli [2]; 60 μg/ml peptide, OD600 every hour over 24 h, relative to untreated control) of the same molecule?
Its value is “++”.

And the “MIC S. epidermidis MRSE” value [4]?
Its value is 16 µg/mL (≈ 4.72 µM).
